Data: PubChem BioAssay (NCI)
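How tested: cells in 96-well plates exposed to compound for 48 hours at five concentrations. GI50 = concentration required for 50% inhibition of growth. TGI: concentration producing complete growth inhibition.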

Key:
Experiment in all cases: NCI tumour cell line growth inhibition, 48 h; in the data active means GI50 below about 0.43 µM; inactive means the rest
786-0 renal = test system: 786-0 renal
A498 renal = test system: A498 renal
A549 NSCLC = test system: A549 NSCLC
ACHN renal = test system: ACHN renal
BT-549 breast = test system: BT-549 breast
CAKI-1 renal = test system: CAKI-1 renal
CCRF-CEM leukemia = test system: CCRF-CEM leukemia
COLO 205 colon = test system: COLO 205 colon
DU-145 prostate = test system: DU-145 prostate
EKVX NSCLC = test system: EKVX NSCLC
HCC-2998 colon = test system: HCC-2998 colon
HCT-116 colon = test system: HCT-116 colon
HCT-15 colon = test system: HCT-15 colon
HL-60(TB) leukemia = test system: HL-60(TB) leukemia
HOP-62 NSCLC = test system: HOP-62 NSCLC
HOP-92 NSCLC = test system: HOP-92 NSCLC
HS 578T breast = test system: HS 578T breast
HT29 colon = test system: HT29 colon
IGROV1 ovarian = test system: IGROV1 ovarian
K-562 leukemia = test system: K-562 leukemia
KM12 colon = test system: KM12 colon
LOX IMVI melanoma = test system: LOX IMVI melanoma
M14 melanoma = test system: M14 melanoma
MALME-3M melanoma = test system: MALME-3M melanoma
MCF7 breast = test system: MCF7 breast
MDA-MB-231 breast = test system: MDA-MB-231 breast
MDA-MB-435 = test system: MDA-MB-435
MOLT-4 leukemia = test system: MOLT-4 leukemia
NCI-H226 lung = test system: NCI-H226 lung
NCI-H23 lung = test system: NCI-H23 lung
NCI-H460 lung = test system: NCI-H460 lung
NCI-H522 lung = test system: NCI-H522 lung
NCI/ADR-RES ovarian = test system: NCI/ADR-RES ovarian
OVCAR-3 ovarian = test system: OVCAR-3 ovarian
OVCAR-4 ovarian = test system: OVCAR-4 ovarian
OVCAR-5 ovarian = test system: OVCAR-5 ovarian
OVCAR-8 ovarian = test system: OVCAR-8 ovarian
PC-3 prostate = test system: PC-3 prostate
RPMI-8226 leukemia = test system: RPMI-8226 leukemia
RXF 393 renal = test system: RXF 393 renal
SF-268 CNS = test system: SF-268 CNS
SF-295 CNS = test system: SF-295 CNS
SF-539 CNS = test system: SF-539 CNS
SK-MEL-2 melanoma = test system: SK-MEL-2 melanoma
SK-MEL-28 melanoma = test system: SK-MEL-28 melanoma
SK-MEL-5 melanoma = test system: SK-MEL-5 melanoma
SK-OV-3 ovarian = test system: SK-OV-3 ovarian
SN12C renal = test system: SN12C renal
SNB-19 CNS = test system: SNB-19 CNS
SNB-75 CNS = test system: SNB-75 CNS
SR leukemia = test system: SR leukemia
SW-620 colon = test system: SW-620 colon
T-47D breast = test system: T-47D breast
TK-10 renal = test system: TK-10 renal
U251 CNS = test system: U251 CNS
UACC-257 melanoma = test system: UACC-257 melanoma
UACC-62 melanoma = test system: UACC-62 melanoma
UO-31 renal = test system: UO-31 renal

COc1cc(C(=O)N2CCN(c3ccccc3OC)CC2)c(N)cc1OCc1ccccc1
98.3 µM: TGI (CCRF-CEM leukemia)
42.6 µM: TGI (MDA-MB-231 breast)
53.6 µM: TGI (MOLT-4 leukemia)
71.3 µM: TGI (LOX IMVI melanoma)
81.2 µM: TGI (A498 renal)
99.5 µM: TGI (T-47D breast)
85.9 µM: TGI (RXF 393 renal)
42.8 µM: TGI (HCT-116 colon)
90.6 µM: TGI (KM12 colon)
66.8 µM: TGI (BT-549 breast) | TGI (SK-MEL-2 melanoma)
76.5 µM: TGI (MDA-MB-435)
73.2 µM: TGI (TK-10 renal)
48.8 µM: TGI (HL-60(TB) leukemia)
58.8 µM: TGI (OVCAR-3 ovarian)
48.7 µM: TGI (SR leukemia)
49.2 µM: TGI (RPMI-8226 leukemia)
> 100 µM: TGI (786-0 renal) | TGI (A549 NSCLC) | TGI (ACHN renal) | TGI (CAKI-1 renal) | TGI (COLO 205 colon) | TGI (DU-145 prostate) | TGI (EKVX NSCLC) | TGI (HCC-2998 colon) | TGI (HCT-15 colon) | TGI (HOP-62 NSCLC) | TGI (HS 578T breast) | TGI (HT29 colon) | TGI (IGROV1 ovarian) | TGI (K-562 leukemia) | TGI (M14 melanoma) | TGI (MCF7 breast) | TGI (NCI-H226 lung) | TGI (NCI-H23 lung) | TGI (NCI-H460 lung) | TGI (NCI/ADR-RES ovarian) | TGI (OVCAR-4 ovarian) | TGI (OVCAR-5 ovarian) | TGI (OVCAR-8 ovarian) | TGI (PC-3 prostate) | TGI (SF-268 CNS) | TGI (SF-295 CNS) | TGI (SF-539 CNS) | TGI (SK-MEL-28 melanoma) | TGI (SK-OV-3 ovarian) | TGI (SN12C renal) | TGI (SNB-19 CNS) | TGI (SNB-75 CNS) | TGI (SW-620 colon) | TGI (U251 CNS) | TGI (UACC-257 melanoma) | TGI (UO-31 renal)
55.6 µM: TGI (MALME-3M melanoma)
77.1 µM: TGI (UACC-62 melanoma)
43.4 µM: TGI (HOP-92 NSCLC)
80.6 µM: TGI (NCI-H522 lung)
inactive: GI50 (786-0 renal) 45.6 µM | GI50 (A498 renal) 30.6 µM | GI50 (A549 NSCLC) 34.8 µM | GI50 (ACHN renal) 32.4 µM | GI50 (BT-549 breast) 27.6 µM | GI50 (CAKI-1 renal) 37.9 µM | GI50 (CCRF-CEM leukemia) 34.7 µM | GI50 (COLO 205 colon) 59.4 µM | GI50 (DU-145 prostate) 42 µM | GI50 (EKVX NSCLC) 35.7 µM | GI50 (HCC-2998 colon) 40 µM | GI50 (HCT-116 colon) 20.7 µM | GI50 (HCT-15 colon) 34.9 µM | GI50 (HL-60(TB) leukemia) 25.5 µM | GI50 (HOP-62 NSCLC) 34.4 µM | GI50 (HOP-92 NSCLC) 14.8 µM | GI50 (HS 578T breast) 42.7 µM | GI50 (HT29 colon) 31.3 µM | GI50 (IGROV1 ovarian) 28.5 µM | GI50 (K-562 leukemia) 27.2 µM | GI50 (KM12 colon) 32.9 µM | GI50 (LOX IMVI melanoma) 27.2 µM | GI50 (M14 melanoma) 39.3 µM | GI50 (MALME-3M melanoma) 22.3 µM | GI50 (MCF7 breast) 29.3 µM | GI50 (MDA-MB-231 breast) 19.2 µM | GI50 (MDA-MB-435) 28.1 µM | GI50 (MOLT-4 leukemia) 21.5 µM | GI50 (NCI-H226 lung) 38.3 µM | GI50 (NCI-H23 lung) 48.4 µM | GI50 (NCI-H460 lung) 33.1 µM | GI50 (NCI-H522 lung) 25.9 µM | GI50 (NCI/ADR-RES ovarian) 33.5 µM | GI50 (OVCAR-3 ovarian) 22.1 µM | GI50 (OVCAR-4 ovarian) 32.2 µM | GI50 (OVCAR-5 ovarian) 80.6 µM | GI50 (OVCAR-8 ovarian) 38.3 µM | GI50 (PC-3 prostate) 23.8 µM | GI50 (RPMI-8226 leukemia) 21.1 µM | GI50 (RXF 393 renal) 25.3 µM | GI50 (SF-268 CNS) 43.8 µM | GI50 (SF-295 CNS) 40.3 µM | GI50 (SF-539 CNS) 45.3 µM | GI50 (SK-MEL-2 melanoma) 28.2 µM | GI50 (SK-MEL-28 melanoma) 43.4 µM | GI50 (SK-MEL-5 melanoma) 16.5 µM | GI50 (SK-OV-3 ovarian) 49.9 µM | GI50 (SN12C renal) 30.5 µM | GI50 (SNB-19 CNS) 25.7 µM | GI50 (SNB-75 CNS) 42.6 µM | GI50 (SR leukemia) 22.5 µM | GI50 (SW-620 colon) 41.1 µM | GI50 (T-47D breast) 26.2 µM | GI50 (TK-10 renal) 31.9 µM | GI50 (U251 CNS) 41.8 µM | GI50 (UACC-257 melanoma) 39 µM | GI50 (UACC-62 melanoma) 26 µM | GI50 (UO-31 renal) 22.4 µM
31.4 µM: TGI (SK-MEL-5 melanoma)
